Here are results for six compounds from US6350760B1, “Substituted piperidines as melanocortin-4 receptor agonists” (Merck & Co., Inc., priority 1999, dated 2002).

The term IC50 denotes the concentration at which inhibition is half-maximal. Read a high IC50 as weaker potency. The term EC50 denotes the midpoint of the concentration-response curve. Read a low EC50 as higher potency in that assay.

For data set [1] the following is noted: in vivo; cited from earlier work.
For data set [2], the system named is psychogenic erectile dysfunction. The conditions noted are these: cited from earlier work.
Data set [3] deals with animal feeding models (NPY, ob/ob, agouti, fasted). Conditions: injected intracerebroventricularly (ICV) in rodents; cited from earlier work.
In data set [4] the test system is conscious rat model of reflexogenic erections. The experiment in a line: Rat ex copula assay, conscious rat model of reflexogenic erections. It is filed as in vivo. The conditions noted are these: for efficacy of reference drugs in conscious rat model of reflexogenic erections: positive reference controls; for penile erections, % Increase from Vehicle or Baseline: rats. The method, then: Sexually mature male Caesarian Derived Sprague Dawley (CD) rats (over 60 days old) are used with the suspensory ligament surgically removed to prevent retraction of the penis back into the penile sheath during the ex copula evaluations. Animals receive food and water ad lib and are kept on a normal light/dark cycle. Studies are conducted during the light cycle.
1) Conditioning to Supine Restraint for Ex Copula Reflex Tests. This conditioning takes ˜4 days. Day 1, the animals are placed in a darkened restrainer and left for 15-30 minutes. Day 2, the animals are restrained in a supine position in the restrainer for 15-30 minutes. Day 3, the animals are restrained in the supine position with the penile sheath retracted for 15-30 minutes. Day 4, the animals are restrained in the supine position with the penile sheath retracted until penile responses are observed. Some animals require additional days of conditioning before they are completely acclimated to the procedures; non-responders are removed from further evaluation. After any handling or evaluation animals are given a treat to ensure positive reinforcement.
2) Ex Copula Reflex Tests. Rats are gently restrained in a supine position with their anterior torso placed inside a cylinder of adequate size to allow for normal head and paw grooming. For a 400-500 gram rat, the diameter of the cylinder is approximately 8 cm. The lower torso and hind limbs are restrained with a non-adhesive material (vetrap). An additional piece of vetrap with a hole in it, through which the glans penis will be passed, is fastened over the animal to maintain the preputial sheath in a retracted position. Penile responses will be observed, typically termed ex copula genital reflex tests. Typically, a series of penile erections will occur spontaneously within a few minutes after sheath retraction. The types of normal reflexogenic erectile responses include elongation, engorgement, cup and flip. An elongation is classified as an extension of the penile body. Engorgement is a dilation of the glans penis. A cup is defined as an intense erection where the distal margin of the glans penis momentarily flares open to form a cup. A flip is a dorsiflexion of the penile body.
Baseline and or vehicle evaluations are conducted to determine how and if an animal will respond. Some animals have a long duration until the first response while others are non-responders altogether. During this baseline evaluation latency to first response, number and type of responses are recorded. The testing time frame is 15 minutes after the first response.
[…] All evaluations are videotaped and scored later. Data are collected and analyzed using paired 2 tailed t-tests to compared baseline and/or vehicle evaluations to drug treated evaluations for individual animals. Groups of a minimum of 4 animals are utilized to reduce variability.
Positive reference controls are included in each study to assure the validity of the study. Animals can be dosed by a number of routes of administration depending on the nature of the study to be performed. The routes of administration includes intravenous (IV), intraperitoneal (IP), subcutaneous (SC) and intracerebral ventricular (ICV).
In this non-random crossover model, rats were placed in the supine position with the preputial sheath retracted to initiate a reflex arc. The number of erections was counted in the 15 minute period following the first erection.

For another data set, the system named is erectile dysfunction. Conditions: cited from earlier work; for duration of effect / onset of action: after an oral dose, men; for proportion of men/patients with adequate response: oral, erectile dysfunction patients.
Data set [5] addresses T1, human MC-5R (Homo sapiens, UniProt P33032).
T1 construct: expressed in transfected cells; host or cells: CHO- or L-cells or other eukaryotic cells
Description: Membrane binding assay, competition with 125I-NDP-alpha-MSH. The conditions noted are these: human receptor; average of at least 3 determinations. As for the experimental part: (§1) A. Binding Assay. The membrane binding assay was used to identify competitive inhibitors of ^125I-NDP-alpha-MSH binding to cloned human MCRs expressed in L- or CHO-cells.
(§2) Cell lines expressing melanocortin receptors were grown in T-180 flasks containing selective medium of the composition: 1 L Dulbecco's modified Eagles Medium (DMEM) with 4.5 g L-glucose, 25 mM Hepes, without sodium pyruvate, (Gibco/BRl); 100 ml 10% heat-inactivated fetal bovine serum (Sigma); 10 ml 10,000 unit/ml penicillin & 10,000 ug/ml streptomycin (Gibco/BRl); 10 ml 200 mM L-glutamine (Gibco/BRl); 1 mg/ml Geneticin (G418) (Gibco/BRl). The cells were grown at 37° C. with CO2 and humidity control until the desired cell density and cell number was obtained.
(§3) The medium was poured off and 10 mls/monolayer of enzyme-free dissociation media (Specialty Media Inc.) was added. The cells were incubated at 37° C. for 10 minutes or until cells sloughed off when flask was banged against hand.
(§4) The cells were harvested into 200 ml centrifuge tubes and spun at 1000 rpm, 4° C., for 10 min. […]
(§5) IC50's were determined in a competition binding assay with ^125I-NDP-alpha-MSH as ligand using crude membranes prepared from cell lines expressing the appropriate MC-R. Functional EC50's were determined by application of compound to intact cells followed by direct measurement of cAMP as described in the Biological Assays section above.

Data set [6] has as its target T2, human MC-2R (Homo sapiens, UniProt Q01718). The experiment in a line: Functional cell based cAMP assay. On the set-up: expressed in transfected cells; host or cells: L- or CHO-cells. Conditions: @ 10 μM; cAMP relative to alpha-MSH defined as 100% agonist.
Source text: (§6) B. Functional assay. Functional cell based assays were developed to discriminate melanocortin receptor agonists from antagonists.
Cells (for example, CHO- or L-cells or other eukaryotic cells) expressing a human melanocortin receptor (see e.g. Yang-YK; Ollmann-MM; Wilson-BD; Dickinson-C; Yamada-T; Barsh-GS; Gantz-I; Mol-Endocrinol. 1997 Mar; 11(3): 274-80) were dissociated from tissue culture flasks by rinsing with Ca and Mg free phosphate buffered saline (14190-136, Life Technologies, Gaithersburg, Md.) and detached following 5 minutes incubation at 37° C. with enzyme free dissociation buffer (S-014-B, Specialty Media, Lavellette, N.J.). Cells were collected by centrifugation and resuspended in Earle's Balanced Salt Solution (14015-069, Life Technologies, Gaithersburg, Md.) with additions of 10 mM HEPES pH 7.5, 5 mM MgCl2, 1 mM glutamine and 1 mg/ml bovine serum albumin. Cells were counted and diluted to 1 to 5×10^6/ml. […]
cAMP was measured in an aliquot of the cell lysate with the Amersham (Arlington Heights, Ill.) cAMP detection assay (RPA556). […]
as §5
(In general: cAMP levels reflect the balance of adenylyl cyclase and phosphodiesterase activity.)

Data set [7] concerns the target T2, human MC-2R. The experiment in a line: Membrane binding assay, competition with 125I-NDP-alpha-MSH. On the set-up: expressed in transfected cells; host or cells: L- or CHO-cells (membranes). Conditions: human receptor; average of at least 3 determinations. The method, then:
as §1, §2, §3, §4, §5

The next data set has as its target T3, human MC-1R (Homo sapiens, UniProt Q01726).
T3 construct: expressed in transfected cells; host or cells: CHO- or L-cells or other eukaryotic cells
Description: Functional cell based cAMP assay. Conditions: cAMP relative to alpha-MSH at 10 μM defined as 100% agonist.
Source text: as §6
(§7) Cells (for example, CHO- or L-cells or other eukaryotic cells) expressing a human melanocortin receptor (see e.g. Yang-YK; Ollmann-MM; Wilson-BD; Dickinson-C; Yamada-T; Barsh-GS; Gantz-I; Mol-Endocrinol. 1997 Mar; 11(3): 274-80) were dissociated from tissue culture flasks by rinsing with Ca and Mg free phosphate buffered saline (14190-136, Life Technologies, Gaithersburg, Md.) and detached following 5 minutes incubation at 37° C. with enzyme free dissociation buffer (S-014-B, Specialty Media, Lavellette, N.J.). Cells were collected by centrifugation and resuspended in Earle's Balanced Salt Solution (14015-069, Life Technologies, Gaithersburg, Md.) with additions of 10 mM HEPES pH 7.5, 5 mM MgCl2, 1 mM glutamine and 1 mg/ml bovine serum albumin. Cells were counted and diluted to 1 to 5×10^6/ml. The phosphodiesterase inhibitor 3-isobutyl-1-methylxanthine was added to cells to 0.6 mM.
(§8) Test compounds were diluted in dimethylsulfoxide (DMSO) (10^−5 to 10^−10 M) and 0.1 volume of compound solution was added to 0.9 volumes of cell suspension; the final DMSO concentration was 1%. After room temperature incubation for 45 min., cells were lysed by incubation at 100° C. for 5 min. to release accumulated cAMP.
(§9) cAMP was measured in an aliquot of the cell lysate with the Amersham (Arlington Heights, Ill.) cAMP detection assay (RPA556). The amount of cAMP production which resulted from an unknown compound was compared to that amount of cAMP produced in response to alpha-MSH at 10 μM which was defined as a 100% agonist.
as §5

In another data set the target is T4, human MC-3R (Homo sapiens, UniProt P41968).
T4 construct: expressed in transfected cells; host or cells: CHO- or L-cells or other eukaryotic cells
T4 sequence (P41968 whole entry): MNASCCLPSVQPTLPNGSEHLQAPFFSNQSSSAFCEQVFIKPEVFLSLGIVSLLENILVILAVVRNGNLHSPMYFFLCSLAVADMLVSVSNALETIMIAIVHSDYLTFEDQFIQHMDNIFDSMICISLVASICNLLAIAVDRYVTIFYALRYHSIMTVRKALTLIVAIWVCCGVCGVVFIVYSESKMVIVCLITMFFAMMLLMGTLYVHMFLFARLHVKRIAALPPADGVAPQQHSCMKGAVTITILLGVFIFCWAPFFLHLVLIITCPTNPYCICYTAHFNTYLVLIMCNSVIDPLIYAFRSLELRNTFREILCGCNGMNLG
Description: Functional cell based cAMP assay. The conditions noted are these: cAMP relative to alpha-MSH at 10 μM defined as 100% agonist.
Source text: as §6, §7, §8, §9, §5

Data set [8] addresses T1, human MC-5R. Description: Functional cell based cAMP assay.
Source text: as §6, §7, §8, §9, §5

Marks after values point to notes of the source that are not given here.

T1 sequence (P33032 whole entry): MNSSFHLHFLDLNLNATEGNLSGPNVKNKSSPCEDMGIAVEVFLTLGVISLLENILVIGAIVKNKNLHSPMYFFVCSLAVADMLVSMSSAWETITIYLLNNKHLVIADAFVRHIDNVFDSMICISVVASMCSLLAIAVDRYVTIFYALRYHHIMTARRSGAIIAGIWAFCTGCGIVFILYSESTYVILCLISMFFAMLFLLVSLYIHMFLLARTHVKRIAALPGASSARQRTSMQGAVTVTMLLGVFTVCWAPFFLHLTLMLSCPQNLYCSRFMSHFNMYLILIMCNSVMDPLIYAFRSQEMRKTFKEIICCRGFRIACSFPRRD
T2 sequence (Q01718 whole entry): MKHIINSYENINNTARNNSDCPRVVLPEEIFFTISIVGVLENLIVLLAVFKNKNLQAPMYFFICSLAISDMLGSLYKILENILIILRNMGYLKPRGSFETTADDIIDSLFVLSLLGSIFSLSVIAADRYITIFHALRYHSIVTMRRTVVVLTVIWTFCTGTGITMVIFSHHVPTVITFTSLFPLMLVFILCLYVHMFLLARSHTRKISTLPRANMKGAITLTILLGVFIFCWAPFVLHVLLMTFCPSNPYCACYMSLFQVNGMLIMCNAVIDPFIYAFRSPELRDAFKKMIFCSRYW
T3 sequence (Q01726 whole entry): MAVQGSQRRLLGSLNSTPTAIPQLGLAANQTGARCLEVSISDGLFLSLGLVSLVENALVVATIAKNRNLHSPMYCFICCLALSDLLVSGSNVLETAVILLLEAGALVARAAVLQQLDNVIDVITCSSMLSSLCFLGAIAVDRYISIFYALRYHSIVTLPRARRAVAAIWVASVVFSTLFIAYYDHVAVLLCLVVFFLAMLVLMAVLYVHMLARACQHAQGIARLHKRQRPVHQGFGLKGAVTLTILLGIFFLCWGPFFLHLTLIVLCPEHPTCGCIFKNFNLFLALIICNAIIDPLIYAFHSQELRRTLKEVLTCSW

With “Ac-Nle-c[Asp-His-DPhe-Arg-Trp-Lys]-NH2 [MT-II]”, the “absorption into the systemic circulation by the oral route” value in data set [1] is “not absorbed into the systemic circulation”. Further, in data set [2] (in vivo), the adverse reactions observed result is “nausea, flushing, loss of appetite, stretching, and yawning”. In addition, the response rate in data set [2] (injected intramuscularly or subcutaneously to males with psychogenic erectile dysfunction) is listed as 75%. Further, in data set [2] (men), the duration of action result was “approximately 2.5 hours” and the “time to onset of erection” value was 10 to 20 min. Moreover, in data set [3], the “effect on food intake” value is given as “reduces food intake”.
With `CCCc1nn(C)c2c(=O)[nH]c(-c3cc(S(=O)(=O)N4CCN(C)CC4)ccc3OCC)nc12` [sildenafil], the “efficacy of reference drugs in conscious rat model of reflexogenic erections” value in data set [4] was “effective”. Moreover, in the data set with erectile dysfunction, the duration of effect result is “about 4 hours”, the onset of action was 30 to 60 min and the “proportion of men/patients with adequate response” value is reported as “about 70%”. The “adverse effects associated with clinical use” value in the data set on erectile dysfunction (clinical use) is “headache, flushing, dyspepsia, and “abnormal vision”.
`Cc1ccc(N(CC2=NCCN2)c2cccc(O)c2)cc1` [phentolamine]: in the data set with erectile dysfunction, the duration of effect is 2 h, the onset of action is 5 to 30 min and the “proportion of men/patients with adequate response” value was 35-40%.
Turning to `O=C(N[C@H](Cc1ccc(Cl)cc1)C(=O)N1CCC(Cn2cncn2)(C2CCCCC2)CC1)[C@H]1Cc2ccccc2CN1` [Example 2], the 50% inhibitory concentration (IC50) on human MC-5R [5] was 230 nM; at human MC-2R [7], greater than 10000 nM. On human MC-2R [6], the “Functional Activity, agonist efficacy, MC-2R” value is given as 0% @ 10 μM. Moreover, in data set [4] (administered by the intravenous (IV) route or by the oral (PO) route), the “number of erections in conscious rat model of reflexogenic erections” value is on record as “effective in significantly increasing the number of erections”. The “penile erections, % Increase from Vehicle or Baseline” value in [4] (0.3 mg/kg IV, placed supine 60 min after dosing, P = 0.05) is recorded as 15* %; in data set [4] (1.0 mg/kg IV, placed supine 0 min after dosing, P = 0.05), 31%; in data set [4] (1.0 mg/kg IV, placed supine 60 min after dosing, P = 0.05), 35%; in [4] (5.0 mg/kg IV, placed supine 60 min after dosing, P = 0.01), 50** %; in data set [4] (10 mg/kg IV, placed supine 0 min after dosing, P = 0.01) it was 45%; in data set [4] (10 mg/kg IV, placed supine 60 min after dosing, P = 0.01) it was 38%. Further, the “penile erections, % Increase from Vehicle or Baseline” value in [4] (20 mg/kg PO, placed supine 60 min after dosing, P = 0.01) is reported as 24** %; in [4] (20 μG ICV, placed supine 0 min after dosing, P = 0.05), 41* %. The “Functional Activity, agonist efficacy, MC-1R” value on human MC-1R is 84%. The “Functional Activity, agonist efficacy, MC-3R” value on human MC-3R stood at 29%. Further, at human MC-5R [8] (cAMP relative to alpha-MSH at 10 μM defined as 100% agonist), the “Functional Activity, agonist efficacy, MC-5R” value is 58%. This compound also had an EC50 on human MC-5R [8] (human receptor, cAMP, average of at least 3 determinations) of 530 nM.
With SHU-9119, in data set [3], the “effect on food intake” value is “reverses this effect and can induce hyperphagia”.
As to `CN1CCc2cccc3c2[C@H]1Cc1ccc(O)c(O)c1-3` [apomorphine], the “efficacy of reference drugs in conscious rat model of reflexogenic erections” value in [4] is on record as “effective”.
